Source: publication PMC7340446, “Optimization of PTH/PTHrP Hybrid Peptides to Derive a Long‐Acting PTH Analog (LA‐PTH)” (JBMR Plus, 2020)
Where no end group is shown, it is not given here.

Target: T1, human PTHR1 (Homo sapiens, UniProt Q03431)
T1 construct: expressed in transfected cells
T1 sequence (Q03431 27-593): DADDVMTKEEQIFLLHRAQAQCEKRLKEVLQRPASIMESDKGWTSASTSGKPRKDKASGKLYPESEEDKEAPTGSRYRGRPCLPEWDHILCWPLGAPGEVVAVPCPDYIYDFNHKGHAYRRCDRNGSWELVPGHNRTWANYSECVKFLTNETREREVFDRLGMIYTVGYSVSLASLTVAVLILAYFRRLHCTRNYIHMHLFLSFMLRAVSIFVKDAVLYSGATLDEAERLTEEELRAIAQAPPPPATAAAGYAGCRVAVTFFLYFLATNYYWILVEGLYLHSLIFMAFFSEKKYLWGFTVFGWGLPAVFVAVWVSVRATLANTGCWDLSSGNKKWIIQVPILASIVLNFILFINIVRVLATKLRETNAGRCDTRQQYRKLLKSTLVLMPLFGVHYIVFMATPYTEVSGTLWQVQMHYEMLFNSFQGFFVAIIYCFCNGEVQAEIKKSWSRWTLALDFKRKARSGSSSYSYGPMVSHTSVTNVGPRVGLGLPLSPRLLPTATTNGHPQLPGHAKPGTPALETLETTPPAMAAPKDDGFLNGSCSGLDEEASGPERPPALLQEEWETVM
Assay: GloSensor cAMP signaling assay in GP‐2.3 cells
Assay type: cell-based
Procedure: GP‐2.3 cells, an HEK‐293 cell‐ (ATCC CRL‐1573) derived cell line that stably expresses the luciferase‐based pGloSensor‐22F (GloSensor) cAMP reporter plasmid (Promega Corp., […], USA) along with the human PTHR1, were cultured in DMEM (Thermo Fisher Scientific, Waltham, MA, USA) supplemented with FBS (10%). Cells were seeded into white 96‐well plates for GloSensor cAMP assays, and used for assay 2 to 3 days after the monolayer became confluent.16 UGS‐56 cells were derived from the UMR106 rat osteoblastic cell line by stably transfecting the cells to express the GloSensor‐cAMP reporter. B64 cells are a derivative of the porcine kidney cell line, LLC‐PK1 that stably expresses the human PTHR1. COS‐7 cells (ATCC CRL‐1661) were seeded into 10‐cm dishes and transiently transfected to express the human PTHR1 with or without a high‐affinity, negative‐dominant Gαs subunit; 2 days after transfection, the cells were harvested for membrane preparations.13 All transfections were performed using the Fugene HD reagent (Promega Corp.).
Changes in cAMP levels were assessed in intact GP‐2.3 or UGS‐56 cells via the (GloSensor) cAMP reporter. The intact cells in white 96‐well plates were preloaded with luciferin in CO2‐independent culture media (Thermo Fisher) for 20 min at room temperature, then treated with a test ligand diluted in the same media and placed into a Envision plate reader (PerkinElmer, Waltham, MA, USA) for an additional 30 min, during which time cAMP‐dependent luminescence was measured at 2‐min intervals (ligand‐on phase). […] For washout responses, the cells were treated as above, and after the ligand‐on phase, the plate was removed from the plate reader, the cells were rinsed with media, then fresh media containing only luciferin was added and luminescence was measured for an additional 90 min (washout phase). EC50 values were determined using the 4‐parameter sigmoidal dose–response equation in Prism 8.0 (GraphPad Software, Inc., La Jolla, CA, USA).
The cells were then removed from the plate reader, rinsed twice with media to remove unbound ligand, and then fresh media containing luciferin but lacking ligand was added and luminescence was assessed for additional 90 min (Ligand wash‐out phase). Data are means (± SEM) of four experiments, each performed in triplicate. Figure S2. […] Panels A‐C represent three separate experiments. […] Figure S3. […] Serum and urine samples obtained from the TPTX and sham control rats of the two‐week daily‐administration experiment shown in Figure 4 were analyzed by ELISA for the indicated markers. A) serum 1,25(OH)2Vitamin‐D3. B) urinary deoxypyridinoline (DpD)/Cre. C) serum FGF23. […] Serum and urine samples obtained from the TPTX and sham control rats of the two‐week daily‐administration experiment shown in Figure 4 were analyzed for total inorganic phosphorus (Pi). […] Figure S5. […] B) The same peptides were assessed at a concentration of 3 nM for the capacity to stimulate cAMP formation in HKRK‐B64 cells (LLC‐PK1 cells stably expressing the hPTHR1, cAMP measured by RIA). […] Data in A and B are means (±SEM) of three experiments, each performed in triplicate or quadruplicate. […] D) The same analogs as in C were assessed at a 3.0 nM concentration for the capacity to stimulate cAMP formation in HKRK‐B64 cells. Data are means (±SEM) of three experiments, each performed in duplicate. […] Data are means (±SEM) of duplicate determinations of a single experiment representative of three others. Click here for additional data file.

Emax: 105 ± 4%
Sequence: AVAEIQLMHQRAKWIQDLRRRFFLHHLIAEIHTAEI [M‐PTH(1‐14)/PTHrP(15‐36), [Ala^1,3,12,Gln^10,Arg^11,Trp^14]‐PTH(1‐14)/PTHrP(15–36)]
